Values quoted from earlier work, collected in US12233110B2, “Compositions comprising pharmaceutically acceptable salts of glucagon-like peptide-1 analogs and uses thereof” (i20 Therapeutics, Inc., priority 2021, dated 2025).

Conditions: Reference Data

SMILES	pKa
O=C(O)O [bicarbonate]	approximately 6
C[N+](C)(C)CCO [choline]	approximately 14
